These results are taken from patent publication US10206394B2, “Herbicidal compounds” (Syngenta Participations AG, priority 2014, dated 2019).

Like-named read-outs stand apart in the source and are kept apart here.

Holding throughout (assay): Glasshouse assay for herbicidal activity (pre- and post-emergence), percentage phytotoxicity
Assay type in all cases: in vivo

One assay deals with Avena fatua (AVEFA). The note with it: Avena fatua. Put shortly: (§1)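 Pot-grown, standard soil. PRE: spray 1 d post-sowing; POST: ~12 d. Glasshouse 24/18 °C (warm spp.) / 20/16 °C (cool spp.), 16 h light, 65% RH, watered 2×/day. Visual % damage, 20 DAA PRE, 15 DAA POST.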
Assay [1] deals with Alopecurus myosuroides (ALOMY). The note with it: Alopecurus myosuroides. Put shortly:
as §1

Assay [2] has as its system Echinochloa crus-galli (ECHCG). The note with it: Echinochloa crus-galli. Put shortly:
as §1

For another assay, the system named is Lolium perenne (LOLPE). As to conditions: Lolium perenne. Put shortly: as §1
The mark [3] stands for this setting: post-emergence, 360 h, POST-emergence, rate 250 g/ha, visual score 15 DAA (100%=total damage, 0%=no damage), read-out: Post-emergence herbicidal activity (percentage phytotoxicity) AVEFA POST.
Where [4] appears, read: pre-emergence, 480 h, PRE-emergence, rate 250 g/ha, visual score 20 DAA (100%=total damage, 0%=no damage), read-out: Pre-emergence herbicidal activity (percentage phytotoxicity) AVEFA PRE.
[5] abbreviates: post-emergence, 360 h, POST-emergence, rate 250 g/ha, visual score 15 DAA (100%=total damage, 0%=no damage), read-out: Post-emergence herbicidal activity (percentage phytotoxicity) ALOMY POST.
Where [6] appears, read: pre-emergence, 480 h, PRE-emergence, rate 250 g/ha, visual score 20 DAA (100%=total damage, 0%=no damage), read-out: Pre-emergence herbicidal activity (percentage phytotoxicity) ALOMY PRE.
Setting [7] is: post-emergence, 360 h, POST-emergence, rate 250 g/ha, visual score 15 DAA (100%=total damage, 0%=no damage), read-out: Post-emergence herbicidal activity (percentage phytotoxicity) ECHCG POST.
[8] abbreviates: pre-emergence, 480 h, PRE-emergence, rate 250 g/ha, visual score 20 DAA (100%=total damage, 0%=no damage), read-out: Pre-emergence herbicidal activity (percentage phytotoxicity) ECHCG PRE.
Where [9] appears, read: post-emergence, 360 h, POST-emergence, rate 250 g/ha, visual score 15 DAA (100%=total damage, 0%=no damage), read-out: Post-emergence herbicidal activity (percentage phytotoxicity) LOLPE POST.
Where [10] appears, read: pre-emergence, 480 h, PRE-emergence, rate 250 g/ha, visual score 20 DAA (100%=total damage, 0%=no damage), read-out: Pre-emergence herbicidal activity (percentage phytotoxicity) LOLPE PRE.
[11] abbreviates: post-emergence, 360 h, Rate 250 g/ha, post-emergence, assessed visually 15 DAA, 100%=total damage, 0%=no damage, read-out: Post-emergence herbicidal activity (percentage phytotoxicity) AVEFA POST.
The mark [12] stands for this setting: pre-emergence, 480 h, Rate 250 g/ha, pre-emergence, assessed visually 20 DAA, 100%=total damage, 0%=no damage, read-out: Pre-emergence herbicidal activity (percentage phytotoxicity) AVEFA PRE.
[13] abbreviates: post-emergence, 360 h, Rate 250 g/ha, post-emergence, assessed visually 15 DAA, 100%=total damage, 0%=no damage, read-out: Post-emergence herbicidal activity (percentage phytotoxicity) ALOMY POST.
Setting [14] is: pre-emergence, 480 h, Rate 250 g/ha, pre-emergence, assessed visually 20 DAA, 100%=total damage, 0%=no damage, read-out: Pre-emergence herbicidal activity (percentage phytotoxicity) ALOMY PRE.
The mark [15] stands for this setting: post-emergence, 360 h, Rate 250 g/ha, post-emergence, assessed visually 15 DAA, 100%=total damage, 0%=no damage, read-out: Post-emergence herbicidal activity (percentage phytotoxicity) ECHCG POST.
Setting [16] is: pre-emergence, 480 h, Rate 250 g/ha, pre-emergence, assessed visually 20 DAA, 100%=total damage, 0%=no damage, read-out: Pre-emergence herbicidal activity (percentage phytotoxicity) ECHCG PRE.
Where [17] appears, read: post-emergence, 360 h, Rate 250 g/ha, post-emergence, assessed visually 15 DAA, 100%=total damage, 0%=no damage, read-out: Post-emergence herbicidal activity (percentage phytotoxicity) LOLPE POST.
The mark [18] stands for this setting: pre-emergence, 480 h, Rate 250 g/ha, pre-emergence, assessed visually 20 DAA, 100%=total damage, 0%=no damage, read-out: Pre-emergence herbicidal activity (percentage phytotoxicity) LOLPE PRE.

With `Cc1cc(-c2ncc(Cl)cc2F)cc(C)c1C1C(=O)CC(CC(=O)NCC2CC2(F)F)C1=O` (stereo not drawn) [Compound B197], the pest or weed control at 250 g/ha in the assay with Avena fatua (AVEFA) (setting [3]) was 100%; with Avena fatua (AVEFA) (setting [4]), 90%; in assay [1] (setting [5]), 100%; in assay [1] (setting [6]), 100%; in assay [2] (setting [7]), 100%; in assay [2] (setting [8]), 100%. Further, the pest or weed control at 250 g/ha in the assay on Lolium perenne (LOLPE) (setting [9]) was 100%; with Lolium perenne (LOLPE) (setting [10]), 90%.

In the case of `CCc1cc(-n2cc(Cl)cn2)cc(C)c1C1C(=O)CC(CC(=O)NCc2cccc(Cl)c2)C1=O` (stereo not drawn) [Compound B231], the pest or weed control at 250 g/ha with Avena fatua (AVEFA) (setting [3]) stood at 100%; with Avena fatua (AVEFA) (setting [4]), 20%; in assay [1] (setting [5]), 90%; in assay [1] (setting [6]) it was 50%; in assay [2] (setting [7]), 90%; in assay [2] (setting [8]), 80%. For the same molecule, the figures for the pest or weed control at 250 g/ha in the assay on Lolium perenne (LOLPE) (setting [9]) and in the assay on Lolium perenne (LOLPE) (setting [10]) were 90% and 80%, respectively.

For `CC#Cc1cc(C)c(C2C(=O)CC(CC(=O)NC3CC3)C2=O)c(CC)c1` (stereo not drawn) [Compound A66], the pest or weed control at 250 g/ha in the assay on Avena fatua (AVEFA) (setting [11]) was 100%; in the assay on Avena fatua (AVEFA) (setting [12]), 100%; in assay [1] (setting [13]), 90%; in assay [1] (setting [14]), 100%; in assay [2] (setting [15]), 100%; in assay [2] (setting [16]) it was 100%. Moreover, the pest or weed control at 250 g/ha with Lolium perenne (LOLPE) (setting [17]) and in the assay with Lolium perenne (LOLPE) (setting [18]) was 100% in each case.

As to `CC#Cc1cc(C)c(C2C(=O)CC(CC(=O)NC3CC3)C2=O)c(C)c1` (stereo not drawn) [Compound A32], the pest or weed control at 250 g/ha stood at 100% with Avena fatua (AVEFA) (setting [11]); 80% in the assay with Avena fatua (AVEFA) (setting [12]); 100% in assay [1] (setting [13]); 70% in assay [1] (setting [14]); 100% in assay [2] (setting [15]); 100% in assay [2] (setting [16]). Also, the pest or weed control at 250 g/ha with Lolium perenne (LOLPE) (setting [17]) is 100%; in the assay with Lolium perenne (LOLPE) (setting [18]) it was 90%.

In the case of `Cc1cc(-c2ncc(Cl)cc2F)cc(C)c1C1C(=O)CC(CC(=O)NCc2ccc(Cl)nc2)C1=O` (stereo not drawn) [Compound A116], the pest or weed control at 250 g/ha was determined as 100% in the assay with Avena fatua (AVEFA) (setting [11]); 90% in the assay on Avena fatua (AVEFA) (setting [12]); 90% in assay [1] (setting [13]); 80% in assay [1] (setting [14]); 100% in assay [2] (setting [15]); 100% in assay [2] (setting [16]). In addition, the pest or weed control at 250 g/ha in the assay with Lolium perenne (LOLPE) (setting [17]) turned out to be 100%; in the assay with Lolium perenne (LOLPE) (setting [18]), 80%.

On to `C/C=C/c1cc(C)c(C2C(=O)CC(CC(=O)NCc3cccc(F)c3)C2=O)c(C)c1` (stereo not drawn) [Compound B242], for which the pest or weed control at 250 g/ha in the assay on Avena fatua (AVEFA) (setting [3]) came out at 90%; with Avena fatua (AVEFA) (setting [4]) it was 0%; in assay [1] (setting [5]), 90%; in assay [1] (setting [6]) it was 0%; in assay [2] (setting [7]), 100%; in assay [2] (setting [8]) it was 0%. Besides, the values for the pest or weed control at 250 g/ha in the assay with Lolium perenne (LOLPE) (setting [9]) and in the assay with Lolium perenne (LOLPE) (setting [10]) were 100% and 0%, respectively.

As for `CCc1cc(C)cc(C)c1C1C(=O)CC(CC(=O)NCc2cccc(F)c2)C1=O` (stereo not drawn) [Compound B252], the pest or weed control at 250 g/ha in the assay on Avena fatua (AVEFA) (setting [3]) was determined as 90%; with Avena fatua (AVEFA) (setting [4]), 70%; in assay [1] (setting [5]), 100%; in assay [1] (setting [6]), 100%; in assay [2] (setting [7]), 100%; in assay [2] (setting [8]) it was 100%. Also, the pest or weed control at 250 g/ha in the assay on Lolium perenne (LOLPE) (setting [9]) and in the assay on Lolium perenne (LOLPE) (setting [10]) was 100% each time.

In the case of `C=CC(C)NC(=O)CC1CC(=O)C(c2c(C)cc(-n3cc(Cl)cn3)cc2C)C1=O` (stereo not drawn) [Compound B316], the pest or weed control at 250 g/ha turned out to be 100% in the assay on Avena fatua (AVEFA) (setting [3]); 80% in the assay on Avena fatua (AVEFA) (setting [4]); 90% in assay [1] (setting [5]); 90% in assay [1] (setting [6]); 100% in assay [2] (setting [7]); 90% in assay [2] (setting [8]). In addition, the pest or weed control at 250 g/ha in the assay with Lolium perenne (LOLPE) (setting [9]) turned out to be 90%; with Lolium perenne (LOLPE) (setting [10]), 80%.

For the molecule `Cc1cc(C)c(C2C(=O)CC(CC(=O)NC3CC(F)(F)C3)C2=O)c(C)c1` (stereo not drawn) [Compound A185], the pest or weed control at 250 g/ha was found to be 80% with Avena fatua (AVEFA) (post-emergence, 360 h, post-emergence, 250 g/ha, 15 DAA, visual score (100%=total damage; 0%=no damage), read-out: AVEFA POST herbicidal activity (percentage phytotoxicity)); 60% with Avena fatua (AVEFA) (pre-emergence, 480 h, pre-emergence, 250 g/ha, 20 DAA, visual score (100%=total damage; 0%=no damage), read-out: AVEFA PRE herbicidal activity (percentage phytotoxicity)); 80% in assay [1] (post-emergence, 360 h, post-emergence, 250 g/ha, 15 DAA, visual score (100%=total damage; 0%=no damage), read-out: ALOMY POST herbicidal activity (percentage phytotoxicity)); 80% in assay [1] (pre-emergence, 480 h, pre-emergence, 250 g/ha, 20 DAA, visual score (100%=total damage; 0%=no damage), read-out: ALOMY PRE herbicidal activity (percentage phytotoxicity)); 70% in assay [2] (post-emergence, 360 h, post-emergence, 250 g/ha, 15 DAA, visual score (100%=total damage; 0%=no damage), read-out: ECHCG POST herbicidal activity (percentage phytotoxicity)); 70% in assay [2] (pre-emergence, 480 h, pre-emergence, 250 g/ha, 20 DAA, visual score (100%=total damage; 0%=no damage), read-out: ECHCG PRE herbicidal activity (percentage phytotoxicity)). In addition, the pest or weed control at 250 g/ha is 70% with Lolium perenne (LOLPE) (post-emergence, 360 h, post-emergence, 250 g/ha, 15 DAA, visual score (100%=total damage; 0%=no damage), read-out: LOLPE POST herbicidal activity (percentage phytotoxicity)) and 70% in the assay with Lolium perenne (LOLPE) (pre-emergence, 480 h, pre-emergence, 250 g/ha, 20 DAA, visual score (100%=total damage; 0%=no damage), read-out: LOLPE PRE herbicidal activity (percentage phytotoxicity)).
